Like-named read-outs stand apart in the source and are kept apart here.
Columns and labels:
[1] = molecular target: T1, BuChE from equine serum (EqBuChE) (Equus caballus, UniProt P81908); assay: Inhibition of BuChE, modified Ellman's spectrophotometric method; assay type: biochemical; conditions: for IC50: mean ± SD, n = three experiments
T1 construct: butyrylcholinesterase was from an equine serum; purchased Sigma-Aldrich (Prague, Czech Republic); host or cells: equine serum (natural source)
Description: (§1) The IC50 values were determined using the spectrophotometric Ellman’s method modified according to Zdražilová et al., which is a simple, rapid and direct method to determine the SH and -S-S- group content in proteins. This method is widely used for the screening of the efficiency of cholinesterases inhibitors. The enzymatic activity is measured indirectly by quantifying the concentration of the 5-thio-2-nitrobenzoic acid ion formed in the reaction between the thiol reagent 5,5′-dithio-bis(2-nitrobenzoic acid) and thiocholine, a product of substrate hydrolysis (i.e., acetylthiocholine; ATCH) by cholinesterases.
(§2) The enzyme activity in final reaction mixture (2000 µL) was 0.2 U/mL, concentration of acetylthiocholine (or butyrylthiocholine, BTCH) 40 µM and concentration of 5,5′-dithio-bis(2-nitrobenzoic acid) 0.1 mM for all reactions. The tested compounds were dissolved in DMSO and then diluted in demineralized water to the concentration of 1 µM. […] All measurements were carried in triplicate and the average values of reaction rate (v0-uninhibited reaction, vi-inhibited reaction) were used for construction of the dependence v0/vi vs. concentration of inhibitor. From obtained equation of regression curve, the value of IC50 was calculated (based on the definition of IC50).
(§3) Acetylcholinesterase was obtained from electric eel (Electrophorus electricus L.) and butyrylcholinesterase was from an equine serum.
(§4) Thirty-six benzamides 1–4l were evaluated as potential inhibitors of AChE from electric eel (EeAChE) and BuChE from equine serum (EqBuChE) using Ellman’s spectrophotometric method modified according to Zdražilová et al.. Their efficacy is expressed as IC50, i.e., the concentration required for 50% inhibition of the enzymatic activity. Based on inhibition of both cholinesterases, we calculated selectivity indexes (SI) as the ratio of IC50 value for AChE/IC50 value for BuChE to express the selectivity quantitatively (Table 1).

[2] = molecular target: T2, AChE from electric eel (EeAChE) (Electrophorus electricus, UniProt O42275); assay: Inhibition of AChE, modified Ellman's spectrophotometric method; assay type: biochemical, electric eel (Electrophorus electricus L.); conditions: for Selectivity AChE/BuChE: SI = IC50 for AChE/IC50 for BuChE, SI lower than 1 means selectivity for AChE
T2 construct: Acetylcholinesterase was obtained from electric eel (Electrophorus electricus L.); purchased Sigma-Aldrich (Prague, Czech Republic); host or cells: electric eel (natural source)
Description: as §1, §2, §3, §4

[3] = molecular target: T2, AChE from electric eel (EeAChE); conditions: SI = IC50 for AChE/IC50 for BuChE; cited from earlier work
[4] = mean ± SD, n = three experiments, read-out: IC50 (EeAChE)
[5] = ratio of IC50 values vs parent 3k

T2 sequence (O42275 24-633): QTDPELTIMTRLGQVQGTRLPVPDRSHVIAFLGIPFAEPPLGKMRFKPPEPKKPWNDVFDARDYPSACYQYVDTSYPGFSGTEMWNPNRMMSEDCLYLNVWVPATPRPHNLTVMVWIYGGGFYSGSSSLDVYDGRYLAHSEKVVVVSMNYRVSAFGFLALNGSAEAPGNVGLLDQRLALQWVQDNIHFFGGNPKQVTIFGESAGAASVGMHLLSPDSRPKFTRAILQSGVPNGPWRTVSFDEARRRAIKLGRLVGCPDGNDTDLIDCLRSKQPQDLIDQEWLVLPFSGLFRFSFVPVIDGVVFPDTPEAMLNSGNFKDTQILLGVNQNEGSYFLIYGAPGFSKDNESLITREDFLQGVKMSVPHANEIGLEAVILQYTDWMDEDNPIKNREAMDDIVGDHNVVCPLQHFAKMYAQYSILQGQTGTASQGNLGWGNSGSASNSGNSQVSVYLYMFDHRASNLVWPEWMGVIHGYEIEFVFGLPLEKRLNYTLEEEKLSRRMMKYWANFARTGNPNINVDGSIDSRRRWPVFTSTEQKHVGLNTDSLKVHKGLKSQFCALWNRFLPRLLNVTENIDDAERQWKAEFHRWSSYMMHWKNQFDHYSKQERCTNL
T1 sequence (P81908 whole entry): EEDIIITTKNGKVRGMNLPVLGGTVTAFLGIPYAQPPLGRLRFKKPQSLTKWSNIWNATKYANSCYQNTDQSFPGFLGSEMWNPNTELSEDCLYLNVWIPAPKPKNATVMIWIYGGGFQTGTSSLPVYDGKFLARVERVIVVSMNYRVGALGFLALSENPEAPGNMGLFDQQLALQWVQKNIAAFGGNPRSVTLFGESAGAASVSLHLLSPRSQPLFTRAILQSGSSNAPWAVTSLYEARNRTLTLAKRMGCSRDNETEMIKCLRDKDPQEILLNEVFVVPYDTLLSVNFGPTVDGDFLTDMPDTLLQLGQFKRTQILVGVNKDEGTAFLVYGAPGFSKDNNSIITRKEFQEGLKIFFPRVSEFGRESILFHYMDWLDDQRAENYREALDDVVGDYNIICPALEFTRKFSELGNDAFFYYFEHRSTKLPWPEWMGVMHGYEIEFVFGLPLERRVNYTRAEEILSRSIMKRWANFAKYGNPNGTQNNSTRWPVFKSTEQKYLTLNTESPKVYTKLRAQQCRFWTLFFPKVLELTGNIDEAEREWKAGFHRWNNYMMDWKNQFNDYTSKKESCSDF

Structure (SMILES) | IC50 ([1]; read-out: IC50 (EqBuChE)) [µM] | Selectivity AChE/BuChE [2] | IC50 [2, 4] [µM] | IC50 ([1]; IC50 (EqBuChE)) [µM] | IC50 [2] [µM] | Enhancement of BuChE inhibition compared to parent 3k [1, 5] | Selectivity AChE/BuChE [3] | Enhancement of AChE inhibition compared to parent 3k [2, 5] [times]
O=C1c2ccc(Cl)cc2OP(=O)(c2ccccc2)N1c1ccc(C(F)(F)F)cc1 (racemic) [Compound 5d, (RS)-7-Chloro-2-phenyl-3-[4-(trifluoromethyl)phenyl]-3-hydrobenzo[e][1,3,2]oxazaphosphinin-4-one 2-oxide] | 25 ± 0.3 | 1.93 | 48.1 ± 1.7 |  |  |  |  | 
O=C1c2ccc(Cl)cc2OP(=S)(c2ccccc2)N1c1ccc(C(F)(F)F)cc1 (racemic) [Compound 5e, (RS)-7-Chloro-2-phenyl-3-[4-(trifluoromethyl)phenyl]-3-hydrobenzo[e][1,3,2]oxazaphosphinin-4-one 2-sulfide] | 170 ± 13.6 | 0.37 | 63.5 ± 1.41 |  |  |  |  | 
O=C(Nc1ccccc1)c1ccccc1O [Compound 1, salicylanilide] | 206 ± 12.1 | 0.24 | 49.7 ± 3.73 |  |  |  |  | 
O=C(Nc1cccc(Cl)c1)c1cc(Cl)ccc1O [Compound 2a] | 228 ± 11.3 | 0.26 | 59.5 ± 3.8 |  |  |  |  | 
O=C(Nc1ccc(Cl)cc1)c1cc(Cl)ccc1O [Compound 2b] |  | 0.45 |  | 170 ± 3.09 | 76.5 ± 2.17 |  |  | 
O=C(Nc1ccc(Cl)c(Cl)c1)c1cc(Cl)ccc1O [Compound 2c] | 186 ± 15.7 | 0.33 | 60.8 ± 6.88 |  |  |  |  | 
O=C(Nc1cc(Cl)cc(Cl)c1)c1cc(Cl)ccc1O [Compound 2d, 5-Chloro-N-(3,5-dichlorophenyl)-2-hydroxybenzamide] | 112 ± 7.98 | 0.41 | 46.2 ± 0.63 |  |  |  |  | 
O=C(Nc1cc(Cl)c(Cl)c(Cl)c1)c1cc(Cl)ccc1O [Compound 2e, 5-Chloro-N-(3,4,5-trichlorophenyl)-2-hydroxybenzamide] | 102.7 ± 0.97 | 0.50 | 51.06 ± 0.49 |  |  |  |  | 
O=C(Nc1cccc(Br)c1)c1cc(Cl)ccc1O [Compound 2f] |  | 0.35 |  | 141 ± 1.13 | 50.03 ± 0.15 |  |  | 
O=C(Nc1ccc(Br)cc1)c1cc(Cl)ccc1O [Compound 2g] | 119 ± 6.65 | 0.49 | 58.2 ± 4.87 |  |  |  |  | 
O=C(Nc1cccc(F)c1)c1cc(Cl)ccc1O [Compound 2h] |  | 0.38 |  | 154 ± 8.38 | 58.6 ± 3.98 |  |  | 
O=C(Nc1ccc(F)cc1)c1cc(Cl)ccc1O [Compound 2i] |  | 0.36 |  | 133 ± 15.8 | 48.3 ± 8.9 |  |  | 
O=C(Nc1cccc(C(F)(F)F)c1)c1cc(Cl)ccc1O [Compound 2j] |  | 0.45 |  | 120 ± 3.02 | 54.41 ± 0.25 |  |  | 
O=C(Nc1cc(C(F)(F)F)cc(C(F)(F)F)c1)c1cc(Cl)ccc1O [Compound 2l] | 64.4 ± 1.34 | 0.78 | 50.2 ± 0.88 |  |  |  |  | 
O=C(Nc1cccc(Cl)c1)c1ccc(Cl)cc1O [Compound 3a] |  | 0.43 |  | 134.3 ± 0.24 | 58.1 ± 1.2 |  |  | 
O=C(Nc1ccc(Cl)cc1)c1ccc(Cl)cc1O [Compound 3b] |  | 0.37 |  | 152 ± 3.13 | 56.2 ± 3.23 |  |  | 
O=C(Nc1ccc(Cl)c(Cl)c1)c1ccc(Cl)cc1O [Compound 3c] | 100 ± 1.15 | 0.46 | 46.3 ± 0.56 |  |  |  |  | 
O=C(Nc1cc(Cl)cc(Cl)c1)c1ccc(Cl)cc1O [Compound 3d, 4-Chloro-N-(3,5-dichlorophenyl)-2-hydroxybenzamide] | 141 ± 2.8 | 0.36 | 50.15 ± 0.26 |  |  |  |  | 
O=C(Nc1cc(Cl)c(Cl)c(Cl)c1)c1ccc(Cl)cc1O [Compound 3e, 4-Chloro-N-(3,4,5-trichlorophenyl)-2-hydroxybenzamide] | 132 ± 4.31 | 0.44 | 57.8 ± 4.05 |  |  |  |  | 
O=C(Nc1cccc(Br)c1)c1ccc(Cl)cc1O [Compound 3f] | 168 ± 2.06 | 0.36 | 60.03 ± 0.42 |  |  |  |  | 

Structure (SMILES) | IC50 ([1]; read-out: IC50 (EqBuChE)) [µM] | Selectivity AChE/BuChE [2] | IC50 [2, 4] [µM] | IC50 ([1]; IC50 (EqBuChE)) [µM] | IC50 [2] [µM] | Enhancement of BuChE inhibition compared to parent 3k [1, 5] | Selectivity AChE/BuChE [3] | Enhancement of AChE inhibition compared to parent 3k [2, 5] [times]
O=C(Nc1ccc(Br)cc1)c1ccc(Cl)cc1O [Compound 3g] |  | 0.34 |  | 174 ± 4.02 | 58.3 ± 1.57 |  |  | 
O=C(Nc1cccc(F)c1)c1ccc(Cl)cc1O [Compound 3h] |  | 0.42 |  | 146 ± 4.07 | 60.8 ± 1.74 |  |  | 
O=C(Nc1ccc(F)cc1)c1ccc(Cl)cc1O [Compound 3i] |  | 0.41 |  | 152 ± 7.58 | 62.8 ± 1.53 |  |  | 
O=C(Nc1cccc(C(F)(F)F)c1)c1ccc(Cl)cc1O [Compound 3j] |  | 0.42 |  | 163 ± 11.7 | 68.3 ± 3.78 |  |  | 
O=C(Nc1ccc(C(F)(F)F)cc1)c1ccc(Cl)cc1O [Compound 3k, 4-chloro-2-hydroxy-N-[4-(trifluoromethyl)phenyl]benzamide] |  | 0.30 |  | 200 ± 2.02 | 60.3 ± 2.39 |  |  | 
O=C(Nc1cc(C(F)(F)F)cc(C(F)(F)F)c1)c1ccc(Cl)cc1O [Compound 3l] | 150.5 ± 0.87 | 0.36 | 54.7 ± 2.05 |  |  |  |  | 
O=C(Nc1cccc(Cl)c1)c1cc(Br)ccc1O [Compound 4a] |  | 0.46 |  | 134 ± 1.63 | 62 ± 6.48 |  |  | 
O=C(Nc1ccc(Cl)cc1)c1cc(Br)ccc1O [Compound 4b] |  | 0.66 |  | 131 ± 3.99 | 85.8 ± 6.1 |  |  | 
O=C(Nc1ccc(Cl)c(Cl)c1)c1cc(Br)ccc1O [Compound 4c] | 123 ± 7.2 | 0.50 | 60.8 ± 3.65 |  |  |  |  | 
O=C(Nc1cc(Cl)cc(Cl)c1)c1cc(Br)ccc1O [Compound 4d, 5-Bromo-N-(3,5-dichlorophenyl)-2-hydroxybenzamide] | 135.9 ± 0.14 | 0.24 | 33.1 ± 0.47 |  |  |  |  | 
O=C(Nc1cc(Cl)c(Cl)c(Cl)c1)c1cc(Br)ccc1O [Compound 4e, 5-Bromo-N-(3,4,5-trichlorophenyl)-2-hydroxybenzamide] | 140 ± 6.2 | 0.30 | 42.1 ± 2.41 |  |  |  |  | 
O=C(Nc1cccc(Br)c1)c1cc(Br)ccc1O [Compound 4f] |  | 0.48 |  | 146 ± 3.53 | 69.7 ± 9.97 |  |  | 
O=C(Nc1ccc(Br)cc1)c1cc(Br)ccc1O [Compound 4g] | 112 ± 1.79 | 0.63 | 70.3 ± 2.85 |  |  |  |  | 
O=C(Nc1cccc(F)c1)c1cc(Br)ccc1O [Compound 4h] |  | 0.46 |  | 119 ± 2.53 | 54.4 ± 0.73 |  |  | 
O=C(Nc1ccc(F)cc1)c1cc(Br)ccc1O [Compound 4i] |  | 0.45 |  | 137 ± 1.47 | 61.2 ± 1.08 |  |  | 
O=C(Nc1cccc(C(F)(F)F)c1)c1cc(Br)ccc1O [Compound 4j, 5-bromo-2-hydroxy-N-[3-(trifluoromethyl)phenyl]benzamide] |  | 0.36 |  | 117 ± 2.23 | 42.67 ± 0.18 |  |  | 
O=C(Nc1ccc(C(F)(F)F)cc1)c1cc(Br)ccc1O [Compound 4k] |  | 0.33 |  | 134.8 ± 0.86 | 44.8 ± 3.44 |  |  | 
O=C(Nc1cc(C(F)(F)F)cc(C(F)(F)F)c1)c1cc(Br)ccc1O [Compound 4l] |  | 0.91 |  | 53.5 ± 3.2 | 48.5 ± 1.07 |  |  | 
CCOP(=S)(OCC)Oc1cc(Cl)ccc1C(=O)Nc1ccc(C(F)(F)F)cc1 [Compound 5b] |  |  |  |  |  | up to 20.3 times | 0.50 | 6.6
